Assay results taken from PubChem BioAssay (NCI).
Several values for one entry are separate records, joined by “and”; a condition that tells them apart may be missing. Identical values can stand only once.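 How tested: cells in 96-well plates exposed to compound for 48 hours at five concentrations. GI50 = concentration required for 50% inhibition of growth. At the TGI there is no net growth.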

Legend:
Assay in all cases: DTP human tumour cell line panel, 48 h
786-0 renal = tested on: 786-0 renal
A498 renal = tested on: A498 renal
A549 NSCLC = tested on: A549 NSCLC
ACHN renal = tested on: ACHN renal
BT-549 breast = tested on: BT-549 breast
CAKI-1 renal = tested on: CAKI-1 renal
CCRF-CEM leukemia = tested on: CCRF-CEM leukemia
COLO 205 colon = tested on: COLO 205 colon
EKVX NSCLC = tested on: EKVX NSCLC
HCC-2998 colon = tested on: HCC-2998 colon
HCT-116 colon = tested on: HCT-116 colon
HCT-15 colon = tested on: HCT-15 colon
HL-60(TB) leukemia = tested on: HL-60(TB) leukemia
HOP-62 NSCLC = tested on: HOP-62 NSCLC
HOP-92 NSCLC = tested on: HOP-92 NSCLC
HS 578T breast = tested on: HS 578T breast
HT29 colon = tested on: HT29 colon
IGROV1 ovarian = tested on: IGROV1 ovarian
K-562 leukemia = tested on: K-562 leukemia
KM12 colon = tested on: KM12 colon
LOX IMVI melanoma = tested on: LOX IMVI melanoma
M14 melanoma = tested on: M14 melanoma
MALME-3M melanoma = tested on: MALME-3M melanoma
MCF7 breast = tested on: MCF7 breast
MDA-MB-231 breast = tested on: MDA-MB-231 breast
MDA-MB-435 = tested on: MDA-MB-435
MDA-N = tested on: MDA-N
MOLT-4 leukemia = tested on: MOLT-4 leukemia
NCI-H226 lung = tested on: NCI-H226 lung
NCI-H23 lung = tested on: NCI-H23 lung
NCI-H460 lung = tested on: NCI-H460 lung
NCI-H522 lung = tested on: NCI-H522 lung
NCI/ADR-RES ovarian = tested on: NCI/ADR-RES ovarian
OVCAR-3 ovarian = tested on: OVCAR-3 ovarian
OVCAR-4 ovarian = tested on: OVCAR-4 ovarian
OVCAR-5 ovarian = tested on: OVCAR-5 ovarian
OVCAR-8 ovarian = tested on: OVCAR-8 ovarian
PC-3 prostate = tested on: PC-3 prostate
RPMI-8226 leukemia = tested on: RPMI-8226 leukemia
RXF 393 renal = tested on: RXF 393 renal
SF-268 CNS = tested on: SF-268 CNS
SF-295 CNS = tested on: SF-295 CNS
SF-539 CNS = tested on: SF-539 CNS
SK-MEL-2 melanoma = tested on: SK-MEL-2 melanoma
SK-MEL-28 melanoma = tested on: SK-MEL-28 melanoma
SK-MEL-5 melanoma = tested on: SK-MEL-5 melanoma
SK-OV-3 ovarian = tested on: SK-OV-3 ovarian
SN12C renal = tested on: SN12C renal
SNB-19 CNS = tested on: SNB-19 CNS
SNB-75 CNS = tested on: SNB-75 CNS
SR leukemia = tested on: SR leukemia
SW-620 colon = tested on: SW-620 colon
T-47D breast = tested on: T-47D breast
TK-10 renal = tested on: TK-10 renal
U251 CNS = tested on: U251 CNS
UACC-257 melanoma = tested on: UACC-257 melanoma
UACC-62 melanoma = tested on: UACC-62 melanoma
UO-31 renal = tested on: UO-31 renal
DU-145 prostate = tested on: DU-145 prostate

Cc1ccc(/C=C/C(=N/NC(=O)N/N=C(/C=C/c2ccc(C)cc2)C(C)(C)CN2CCCCC2)C(C)(C)CN2CCCCC2)cc1
TGI (786-0 renal): 2.68 µM | TGI (A498 renal): 3.12 µM | TGI (A549 NSCLC): 3.02 µM | TGI (ACHN renal): 4.23 µM | TGI (BT-549 breast): 4.21 µM | TGI (CAKI-1 renal): 5.56 µM | TGI (CCRF-CEM leukemia): 3.08 µM | TGI (COLO 205 colon): 3.07 µM | TGI (EKVX NSCLC): 6.69 µM | TGI (HCC-2998 colon): 3.21 µM | TGI (HCT-116 colon): 2.64 µM | TGI (HCT-15 colon): 3.25 µM | TGI (HL-60(TB) leukemia): 3.35 µM | TGI (HOP-62 NSCLC): 3.08 µM | TGI (HOP-92 NSCLC): 3.44 µM | TGI (HS 578T breast): 3.29 µM | TGI (HT29 colon): 2.16 µM | TGI (IGROV1 ovarian): 3.71 µM | TGI (K-562 leukemia): 1.68 µM | TGI (KM12 colon): 3.01 µM | TGI (LOX IMVI melanoma): 2.64 µM | TGI (M14 melanoma): 1.8 µM | TGI (MALME-3M melanoma): 3.07 µM | TGI (MCF7 breast): 2.83 µM | TGI (MDA-MB-231 breast): 3.22 µM | TGI (MDA-MB-435): 2.76 µM | TGI (MDA-N): 2.88 µM | TGI (MOLT-4 leukemia): 0.345 µM | TGI (NCI-H226 lung): 4.51 µM | TGI (NCI-H23 lung): 4.82 µM | TGI (NCI-H460 lung): 3.08 µM | TGI (NCI-H522 lung): 3.04 µM | TGI (NCI/ADR-RES ovarian): 3.08 µM | TGI (OVCAR-3 ovarian): 3.07 µM | TGI (OVCAR-4 ovarian): 4.26 µM | TGI (OVCAR-5 ovarian): 4.98 µM | TGI (OVCAR-8 ovarian): 2.88 µM | TGI (PC-3 prostate): 3.52 µM | TGI (RPMI-8226 leukemia): 0.897 µM | TGI (RXF 393 renal): 2.68 µM | TGI (SF-268 CNS): 4.64 µM | TGI (SF-295 CNS): 3.13 µM | TGI (SF-539 CNS): 3.24 µM | TGI (SK-MEL-2 melanoma): 3.44 µM | TGI (SK-MEL-28 melanoma): 3.18 µM | TGI (SK-MEL-5 melanoma): 3.08 µM | TGI (SK-OV-3 ovarian): 3.32 µM | TGI (SN12C renal): 3.27 µM | TGI (SNB-19 CNS): 4.4 µM | TGI (SNB-75 CNS): 3.08 µM | TGI (SR leukemia): 0.359 µM | TGI (SW-620 colon): 3.35 µM | TGI (T-47D breast): 4.02 µM | TGI (TK-10 renal): 3.26 µM | TGI (U251 CNS): 2.82 µM | TGI (UACC-257 melanoma): 3.1 µM | TGI (UACC-62 melanoma): 4.02 µM | TGI (UO-31 renal): 2.28 µM

O=[N+]([O-])c1ccc(Sc2c3ccccc3nc3ccccc23)nc1
TGI (786-0 renal): 4.25 µM | TGI (A498 renal): 32.8 µM | TGI (A549 NSCLC): 43.7 µM | TGI (ACHN renal): 20.5 µM | TGI (BT-549 breast): 27.3 µM | TGI (CAKI-1 renal): 11.8 µM | TGI (CCRF-CEM leukemia): 5.76 µM | TGI (COLO 205 colon): 6.39 µM | TGI (DU-145 prostate): 14.3 µM | TGI (EKVX NSCLC): 31 µM | TGI (HCC-2998 colon): 32.1 µM | TGI (HCT-116 colon): 4.22 µM | TGI (HCT-15 colon): 12.1 µM | TGI (HOP-62 NSCLC): 47.3 µM | TGI (HOP-92 NSCLC): 6.79 µM | TGI (HS 578T breast): 60.7 µM | TGI (HT29 colon): 8.62 µM | TGI (IGROV1 ovarian): 30.6 µM | TGI (KM12 colon): 44.5 µM | TGI (LOX IMVI melanoma): 4.97 µM | TGI (M14 melanoma): 10.4 µM | TGI (MALME-3M melanoma): 6.09 µM | TGI (MCF7 breast): 9.15 µM | TGI (MDA-MB-231 breast): 15.4 µM | TGI (MDA-MB-435): 21.3 µM | TGI (MDA-N): 17.6 µM | TGI (MOLT-4 leukemia): 8.99 µM | TGI (NCI-H226 lung): 35.8 µM | TGI (NCI-H23 lung): 19.8 µM | TGI (NCI-H460 lung): 42.6 µM | TGI (NCI-H522 lung): 8.09 µM | TGI (NCI/ADR-RES ovarian): 45.7 µM | TGI (OVCAR-3 ovarian): 11.2 µM | TGI (OVCAR-4 ovarian): 12.9 µM | TGI (OVCAR-5 ovarian): 33.2 µM | TGI (OVCAR-8 ovarian): > 49.3 µM | TGI (PC-3 prostate): 28.9 µM | TGI (RPMI-8226 leukemia): 5.03 µM | TGI (RXF 393 renal): 7.08 µM | TGI (SF-268 CNS): 19 µM | TGI (SF-295 CNS): 51.1 µM | TGI (SF-539 CNS): 31.2 µM | TGI (SK-MEL-2 melanoma): 38.8 µM | TGI (SK-MEL-28 melanoma): 15.6 µM | TGI (SK-MEL-5 melanoma): 30.7 µM | TGI (SK-OV-3 ovarian): 17.7 µM | TGI (SN12C renal): 29.6 µM | TGI (SNB-19 CNS): 40.5 µM | TGI (SNB-75 CNS): 29.2 µM | TGI (SR leukemia): > 21.3 µM | TGI (SW-620 colon): 4.79 µM | TGI (T-47D breast): 6.52 µM | TGI (TK-10 renal): 6.84 µM | TGI (U251 CNS): 46.3 µM | TGI (UACC-257 melanoma): 19.2 µM | TGI (UACC-62 melanoma): 29.5 µM | TGI (UO-31 renal): 12.4 µM

COC1=Nc2ccccc2S(=O)(=O)C=C1
TGI (786-0 renal): 10.1 µM | TGI (A498 renal): 33 µM | TGI (A549 NSCLC): 36.9 µM | TGI (ACHN renal): 8.83 µM | GI50 (BT-549 breast): 0.678 µM | TGI (BT-549 breast): 19.1 µM | GI50 (CAKI-1 renal): 0.256 µM | GI50 (CCRF-CEM leukemia): 2.85 µM | TGI (CCRF-CEM leukemia): > 100 µM | GI50 (COLO 205 colon): 0.695 µM | TGI (COLO 205 colon): 4.01 µM | TGI (DU-145 prostate): 31.4 µM | TGI (EKVX NSCLC): 32.1 µM | TGI (HCC-2998 colon): 36.9 µM | TGI (HCT-116 colon): 3.46 µM | TGI (HCT-15 colon): 7.89 µM | GI50 (HL-60(TB) leukemia): 1.95 µM | TGI (HOP-62 NSCLC): > 100 µM | GI50 (HOP-92 NSCLC): 0.742 µM | TGI (HOP-92 NSCLC): 15.2 µM | TGI (HS 578T breast): 53.4 µM | TGI (HT29 colon): 26.7 µM | TGI (IGROV1 ovarian): 28.1 µM | TGI (KM12 colon): 28.4 µM | TGI (LOX IMVI melanoma): 10.9 µM | TGI (M14 melanoma): 21.4 µM | TGI (MALME-3M melanoma): 6.84 µM | TGI (MCF7 breast): 12.3 µM | TGI (MDA-MB-231 breast): 27.2 µM | TGI (MDA-MB-435): 24.8 µM | TGI (MDA-N): 20.8 µM | GI50 (MOLT-4 leukemia): 0.489 µM and 0.44 µM | TGI (MOLT-4 leukemia): 2.47 µM | TGI (NCI-H226 lung): > 100 µM | TGI (NCI-H23 lung): 21.4 µM | TGI (NCI-H460 lung): 37.3 µM | TGI (NCI-H522 lung): 2.81 µM | TGI (NCI/ADR-RES ovarian): 36.2 µM | TGI (OVCAR-3 ovarian): 6.79 µM | TGI (OVCAR-4 ovarian): 27.8 µM | TGI (OVCAR-5 ovarian): 31.1 µM | TGI (OVCAR-8 ovarian): 19.5 µM | TGI (PC-3 prostate): 28.7 µM | TGI (RPMI-8226 leukemia): 4.81 µM | TGI (RXF 393 renal): 8.69 µM | TGI (SF-268 CNS): 48.6 µM | TGI (SF-295 CNS): > 88.1 µM | TGI (SF-539 CNS): 33.3 µM | TGI (SK-MEL-2 melanoma): 35.8 µM | TGI (SK-MEL-28 melanoma): 19.9 µM | TGI (SK-MEL-5 melanoma): 24.5 µM | TGI (SK-OV-3 ovarian): > 100 µM | TGI (SN12C renal): 31.7 µM | TGI (SNB-19 CNS): 56.7 µM | TGI (SNB-75 CNS): 17.5 µM | GI50 (SW-620 colon): 0.875 µM | TGI (SW-620 colon): 3.46 µM | TGI (T-47D breast): 14.2 µM | TGI (TK-10 renal): 11.3 µM | TGI (U251 CNS): 24.4 µM | GI50 (UACC-257 melanoma): 0.671 µM | TGI (UACC-257 melanoma): 20.5 µM | TGI (UACC-62 melanoma): 37.4 µM | TGI (UO-31 renal): 12.5 µM
